Assay results: patent US20080161249A1, “Use of Novel Antibacterial Compounds” (SMITHKLINE BEECHAM CORPORATION, priority 2004, published 2008)
Converted amounts (≈) assume the structure as drawn. Like-named read-outs stand apart in the source and are kept apart here. Values belong to the molecule of their own block, whether it stands above or below them.

What was measured:
S. pneumoniae 1629 = assay: MIC against S. pneumoniae 1629, alone and with subinhibitory concentrations of a second agent; type: cell-based, Streptococcus pneumoniae; conditions: for MIC, antibiotic with 0.06 ug/mL (¼ MIC) of Compound (1b) / MIC, antibiotic alone / Compound (1b) fold decrease MIC: S. pneumoniae 1629; for MIC, antibiotic with 0.06 ug/mL (¼ MIC) of Compound (1b): +0.06 ug/mL Compound (1b); for MIC, antibiotic alone: single agent; for MIC: Streptococcus pneumoniae, 1629, S. pneumoniae 1629
S. aureus WCUH29 = assay: MIC against S. aureus WCUH29, alone and with subinhibitory concentrations of a second agent; type: cell-based, Staphylococcus aureus; conditions: for MIC, antibiotic with 1 ug/mL (½ MIC) of Compound (1a) / MIC, antibiotic alone: S. aureus WCUH29; for MIC, antibiotic with 1 ug/mL (½ MIC) of Compound (1a): +1 ug/mL Compound (1a); for MIC, antibiotic alone: single agent; for decrease of MIC by subinhibitory concentrations of Compound (1a): S. aureus, Example 3; for MIC: Staphylococcus aureus, WCUH29, S. aureus WCUH29, no second agent, read-out: MIC, single agent
S. aureus strain Smith = assay: MIC against S. aureus strain Smith, alone and in combination; type: cell-based, Staphylococcus aureus
S. aureus strain RN4220 = assay: MIC against S. aureus strain RN4220, alone and in combination; type: cell-based, Staphylococcus aureus
S. aureus strain Oxford = assay: MIC against S. aureus strain Oxford, alone and in combination; type: cell-based, Staphylococcus aureus
From the text: (§1) Subinhibitory Concentrations of PDF Inhibitors Decrease the MICs of Macrolides against Representative S. aureus Strains
(§2) Subinhibitory Concentrations of Macrolides Decrease the MICs of PDF Inhibitors against Representative S. aureus Strains

S. aureus strain PK1 = assay: MIC against S. aureus strain PK1, alone and in combination; type: cell-based, Staphylococcus aureus
From the text: as §1, §2

H. influenzae Q1 = assay: MIC against H. influenzae Q1, alone and with subinhibitory concentrations of a second agent;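 as to all read-outs here: combinations paired PDF inhibitors with macrolides, one class added below its own MIC to test whether the MIC of the other class dropped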; type: cell-based, Haemophilus influenzae; conditions: H. influenzae Q1; for MIC, antibiotic with 0.5 ug/mL (¼ MIC) of Compound (1a): +0.5 ug/mL Compound (1a); for MIC, antibiotic alone: single agent (Example 7)
[1] = no second agent, read-out: MIC, single agent
[2] = Staphylococcus aureus, macrolide alone, read-out: MIC, −Compound (1a)

SMILES: CC[C@H]1OC(=O)[C@H](C)[C@@H](O[C@H]2C[C@@](C)(OC)[C@@H](O)[C@H](C)O2)[C@H](C)[C@@H](O[C@@H]2O[C@H](C)C[C@H](N(C)C)[C@H]2O)[C@](C)(O)C[C@@H](C)CN(C)[C@H](C)[C@@H](O)[C@]1(C)O [Azithromycin, azithromycin]
decrease of MIC by subinhibitory concentrations of Compound (1b) (S. pneumoniae 1629; S. pneumoniae): 2-8 fold
MIC, antibiotic with 0.06 ug/mL (¼ MIC) of Compound (1b) (S. pneumoniae 1629): 0.016 µg/mL
MIC, antibiotic alone (S. pneumoniae 1629): 0.03 µg/mL (≈ 0.0401 µM)
MIC (S. pneumoniae 1629; [1]): 0.03 µg/mL (≈ 0.0401 µM)
MIC, antibiotic with 1 ug/mL (½ MIC) of Compound (1a) (S. aureus WCUH29): 0.03 µg/mL
MIC, antibiotic alone (S. aureus WCUH29): 1 µg/mL (≈ 1.34 µM)
decrease of MIC by subinhibitory concentrations of Compound (1a) (S. aureus WCUH29): 8-32 fold
MIC (S. aureus WCUH29): 1 µg/mL (≈ 1.34 µM)
MIC (S. aureus strain Smith; [2]): 1 µg/mL
MIC, +Compound (1a) [¼ × MIC] (S. aureus strain Smith; with ¼ × MIC of Compound (1a)): 0.25 µg/mL
MIC (S. aureus strain RN4220; [2]): 1 µg/mL
MIC, +Compound (1a) [¼ × MIC] (S. aureus strain RN4220; with ¼ × MIC of Compound (1a)): 0.25 µg/mL
MIC (S. aureus strain Oxford; [2]): 0.5 µg/mL
MIC, +Compound (1a) [¼ × MIC] (S. aureus strain Oxford; with ¼ × MIC of Compound (1a)): 0.25 µg/mL
MIC, +Compound (1a) [½ × MIC] (S. aureus strain Oxford; with ½ × MIC of Compound (1a)): 0.06 µg/mL
MIC (S. aureus strain PK1; [2]): > 64 µg/mL
MIC, +Compound (1a) [¼ × MIC] (S. aureus strain PK1; with ¼ × MIC of Compound (1a)): 32 µg/mL
MIC, +Compound (1a) [½ × MIC] (S. aureus strain PK1; with ½ × MIC of Compound (1a)): 16 µg/mL
MIC, antibiotic with 0.5 ug/mL (¼ MIC) of Compound (1a) (H. influenzae Q1): 0.25 µg/mL
MIC, antibiotic alone (H. influenzae Q1): 1 µg/mL (≈ 1.34 µM)

decrease of MIC by subinhibitory concentrations of azithromycin (S. pneumoniae 1629; S. pneumoniae): 4-16 fold
decrease of MIC by subinhibitory concentrations of erythromycin (S. pneumoniae 1629; S. pneumoniae): 8-32 fold
Compound (1b) fold decrease MIC (S. pneumoniae 1629; +Azithromycin 0.008 μg/ml {¼ × MIC}): [4] fold
Compound (1b) fold decrease MIC (S. pneumoniae 1629; +Azithromycin […] {½ × MIC}): [16] fold
Compound (1b) fold decrease MIC (S. pneumoniae 1629; +Ciprofloxacin 0.25 μg/ml {½ × MIC}): [0] fold
Compound (1b) fold decrease MIC (S. pneumoniae 1629; +Ciprofloxacin […] {¼ × MIC}): [0] fold
Compound (1b) fold decrease MIC (S. pneumoniae 1629; +Erythromycin 0.008 μg/ml {¼ × MIC}): [8] fold
Compound (1b) fold decrease MIC (S. pneumoniae 1629; +Erythromycin […] {½ × MIC}): [32] fold
Compound (1b) fold decrease MIC (S. pneumoniae 1629; +Mupirocin 0.25 μg/ml {½ × MIC}): [0] fold
Compound (1b) fold decrease MIC (S. pneumoniae 1629; +Mupirocin […] {¼ × MIC}): [0] fold
MIC (S. pneumoniae 1629; +Azithromycin 0.008 μg/ml {¼ × MIC}, read-out: Compound (1b) MIC): 0.06 µg/mL (≈ 0.13 µM)
MIC (S. pneumoniae 1629; +Azithromycin […] {½ × MIC}, read-out: Compound (1b) MIC): 0.016 µg/mL (≈ 0.0347 µM)
MIC (S. pneumoniae 1629; +Ciprofloxacin 0.25 μg/ml {½ × MIC}, read-out: Compound (1b) MIC): 0.25 µg/mL (≈ 0.543 µM)
MIC (S. pneumoniae 1629; +Ciprofloxacin […] {¼ × MIC}, read-out: Compound (1b) MIC): 0.25 µg/mL (≈ 0.543 µM)
MIC (S. pneumoniae 1629; +Erythromycin 0.008 μg/ml {¼ × MIC}, read-out: Compound (1b) MIC): 0.03 µg/mL (≈ 0.0652 µM)
MIC (S. pneumoniae 1629; +Erythromycin […] {½ × MIC}, read-out: Compound (1b) MIC): 0.008 µg/mL (≈ 0.0174 µM)
MIC (S. pneumoniae 1629; +Mupirocin 0.25 μg/ml {½ × MIC}, read-out: Compound (1b) MIC): 0.25 µg/mL (≈ 0.543 µM)
MIC (S. pneumoniae 1629; +Mupirocin […] {¼ × MIC}, read-out: Compound (1b) MIC): 0.25 µg/mL (≈ 0.543 µM)
MIC (S. pneumoniae 1629; [1]): 0.25 µg/mL (≈ 0.543 µM)
SMILES: O=CN(O)C[C@@H](CC1CCCC1)C(=O)NNc1nc(N2CCOCC2)cc(C(F)(F)F)n1 [Compound (1b), N-hydroxy-N-((2R)-2-(cyclopentylmethyl)-3-{N′-[4-(morpholin-4-yl)-6-(trifluoromethyl)-pyrimidin-2-yl]-hydrazino}-3-oxopropyl)-formamide]
effect of subinhibitory concentrations of ciprofloxacin on antibacterial potency (S. pneumoniae 1629; S. pneumoniae): no effect
effect of subinhibitory concentrations of mupirocin on antibacterial potency (S. pneumoniae 1629; S. pneumoniae): no effect

decrease of MIC by subinhibitory concentrations of Compound (1b) (S. pneumoniae 1629; S. pneumoniae): 4-16 fold
MIC, antibiotic with 0.06 ug/mL (¼ MIC) of Compound (1b) (S. pneumoniae 1629): 0.008 µg/mL
MIC, antibiotic alone (S. pneumoniae 1629): 0.03 µg/mL (≈ 0.0409 µM)
MIC (S. pneumoniae 1629; [1]): 0.03 µg/mL (≈ 0.0409 µM)
MIC, antibiotic with 1 ug/mL (½ MIC) of Compound (1a) (S. aureus WCUH29): 0.016 µg/mL
MIC, antibiotic alone (S. aureus WCUH29): 0.25 µg/mL (≈ 0.341 µM)
decrease of MIC by subinhibitory concentrations of Compound (1a) (S. aureus WCUH29): 2-16 fold
MIC (S. aureus WCUH29): 0.25 µg/mL (≈ 0.341 µM)
MIC, antibiotic with 0.5 ug/mL (¼ MIC) of Compound (1a) (H. influenzae Q1): 2 µg/mL
MIC, antibiotic with 1 ug/mL (½ MIC) of Compound (1a) (H. influenzae Q1; +1 ug/mL Compound (1a)): 1 µg/mL
MIC, antibiotic alone (H. influenzae Q1): 8 µg/mL (≈ 10.9 µM)
SMILES: CC[C@H]1OC(=O)[C@H](C)[C@@H](O[C@H]2C[C@@](C)(OC)[C@@H](O)[C@H](C)O2)[C@H](C)[C@@H](O[C@@H]2O[C@H](C)C[C@H](N(C)C)[C@H]2O)[C@](C)(O)C[C@@H](C)C(=O)[C@H](C)[C@@H](O)[C@]1(C)O [Erythromycin, erythromycin]
